Test results reported in publication PMC12638379, “An innovative approach to development of new pyrazolylquinolin-2-one hybrids as dual EGFR and BRAF^V600E inhibitors” (Molecular Diversity, 2025).
Where two headings read alike, the source gives them in different places.

Tested on: NCI 60 cancer cell lines
Test: NCI anticancer screening over a panel of 60 cancer cells, single concentration 10 µM
Assay type: cell-based, human
Details: Homo sapiens, read-out: Growth inhibition (GI %)
Protocol: Ten final compounds 4a–j and five intermediates 2a–e have been selected by the National Cancer Institute (NCI) for anticancer screening over a panel of 60 cancer cells that cover a variety of histological tissues, including the central nervous system, leukemia, lung, colon, kidney, ovary, breast, and prostate, using the protocol established by the National Cancer Institute (NCI). In a primary screening, each compound was screened at a concentration of 10 µM.
Compounds 2a-e and 4a-j were selected by the National Cancer Institute (NCI) according to the protocol of the Compound Evaluation Branch of the National Cancer Institute, Bethesda, USA, for in vitro anticancer screening which refers in turn to apoptotic activity. The methodology of the NCI anticancer screening has been described in detail elsewhere (http://www.dtp.nci.nih.gov).

Compound: CC(=O)c1cnn(-c2cc(=O)[nH]c3ccccc23)c1C [Compound 2a, 4-(4-Acetyl-5-methyl-1H-pyrazol-1-yl)quinolin-2(1H)-one]
- inhibition at 10 µM (786-0, Renal cancer 786-0, 10 μM): < 5%
- inhibition at 10 µM (A498, Renal cancer A498, 10 μM): < 5%
- inhibition at 10 µM (A549, Non-small cell lung cancer A549/ATCC, 10 μM): 5.98%
- inhibition at 10 µM (ACHN, Renal cancer ACHN, 10 μM): 7.82%
- inhibition at 10 µM (BT-549, Breast cancer BT-549, 10 μM): 6.06%
- inhibition at 10 µM (CAKI-1, Renal cancer CAKI-1, 10 μM): 21.5%
- inhibition at 10 µM (CCRF-CEM, Leukemia CCRF-CEM, 10 μM): 11.3%
- inhibition at 10 µM (COLO 205, Colon cancer COLO 205, 10 μM): < 5%
- inhibition at 10 µM (DU-145, Prostate cancer DU-145, 10 μM): < 5%
- inhibition at 10 µM (EKVX, Non-small cell lung cancer EKVX, 10 μM): 54.4%
- inhibition at 10 µM (HCC 2998, Colon cancer HCC-2998, 10 μM): < 5%
- inhibition at 10 µM (HCT-15, Colon cancer HCT-15, 10 μM): < 5%
- inhibition at 10 µM (HCT-116, Colon cancer HCT-116, 10 μM): < 5%
- inhibition at 10 µM (HL-60, Leukemia HL-60(TB), 10 μM): 6.26%
- inhibition at 10 µM (HOP-62, Non-small cell lung cancer HOP-62, 10 μM): 22.9%
- inhibition at 10 µM (HOP-92, Non-small cell lung cancer HOP-92, 10 μM): 25.1%
- inhibition at 10 µM (HT-29, Colon cancer HT29, 10 μM): < 5%
- inhibition at 10 µM (Hs-578T, Breast cancer HS 578T, 10 μM): 8.26%
- inhibition at 10 µM (IGROV-1, Ovarian cancer IGROV1, 10 μM): 37.9%
- inhibition at 10 µM (K562, Leukemia K-562, 10 μM): 9.72%
- inhibition at 10 µM (KM12, Colon cancer KM12, 10 μM): < 5%
- inhibition at 10 µM (LOX IMVI, Melanoma LOX IMVI, 10 μM): 15.6%
- inhibition at 10 µM (Leukemia SR, 10 μM): 5.8%
- inhibition at 10 µM (MCF7, Breast cancer MCF7, 10 μM): 17.3%
- inhibition at 10 µM (MDA-MB-231, Breast Cancer MDA-MB 231/ATCC, 10 μM): 26.9%
- inhibition at 10 µM (MDA-MB-435, Melanoma MDA-MB-435, 10 μM): < 5%
- inhibition at 10 µM (MDA-MB-468, Breast cancer MDA-MB-468, 10 μM): < 5%
- inhibition at 10 µM (MOLT-4, Leukemia MOLT-4, 10 μM): 7.63%
- inhibition at 10 µM (Malme-3M, Melanoma MALME-3M, 10 μM): 11.3%
- inhibition at 10 µM (Melanoma M14, 10 μM): < 5%
- inhibition at 10 µM (NCI-H23, Non-small cell lung cancer NCI-H23, 10 μM): 10.3%
- inhibition at 10 µM (NCI-H226, Non-small cell lung cancer NCI-H226, 10 μM): 32.4%
- inhibition at 10 µM (NCI-H322M, Non-small cell lung cancer NCI-H322M, 10 μM): 16.1%
- inhibition at 10 µM (NCI-H460, Non-small cell lung cancer NCI-H460, 10 μM): < 5%
- inhibition at 10 µM (NCI-H522, Non-small cell lung cancer NCI-H522, 10 μM): 10.3%
- inhibition at 10 µM (NCI/ADR-RES, Ovarian cancer NCI/ADR-RES, 10 μM): 8.35%
- inhibition at 10 µM (OVCAR-3, Ovarian cancer OVCAR-3, 10 μM): < 5%
- inhibition at 10 µM (OVCAR-4, Ovarian cancer OVCAR-4, 10 μM): < 5%
- inhibition at 10 µM (OVCAR-5, Ovarian cancer OVCAR-5, 10 μM): < 5%
- inhibition at 10 µM (OVCAR-8, Ovarian cancer OVCAR-8, 10 μM): < 5%
- inhibition at 10 µM (Prostate cancer PC-3, 10 μM): 15.2%
- inhibition at 10 µM (RPMI-8226, Leukemia RPMI-8226, 10 μM): 26.6%
- inhibition at 10 µM (RXF 393, Renal cancer RXF 393, 10 μM): < 5%
- inhibition at 10 µM (SF-268, CNS Cancer SF-268, 10 μM): < 5%
- inhibition at 10 µM (SF-295, CNS Cancer SF-295, 10 μM): 6.24%
- inhibition at 10 µM (SF-539, CNS Cancer SF-539, 10 μM): 13%
- inhibition at 10 µM (SK-MEL-2, Melanoma SK-MEL-2, 10 μM): < 5%
- inhibition at 10 µM (SK-MEL-5, Melanoma SK-MEL-5, 10 μM): 11.9%
- inhibition at 10 µM (SK-MEL-28, Melanoma SK-MEL-28, 10 μM): < 5%
- inhibition at 10 µM (SK-OV-3, Ovarian cancer SK-OV-3, 10 μM): 20%
- inhibition at 10 µM (SN12C, Renal cancer SN12C, 10 μM): 8.07%
- inhibition at 10 µM (SNB-19, CNS Cancer SNB-19, 10 μM): 11.4%
- inhibition at 10 µM (SNB-75, CNS Cancer SNB-75, 10 μM): < 5%
- inhibition at 10 µM (SW-620, Colon cancer SW-620, 10 μM): < 5%
- inhibition at 10 µM (T47D, Breast cancer T-47D, 10 μM): 16.9%
- inhibition at 10 µM (TK-10, Renal cancer TK-10, 10 μM): < 5%
- inhibition at 10 µM (U-251, CNS Cancer U251, 10 μM): 8.86%
- inhibition at 10 µM (UACC-62, Melanoma UACC-62, 10 μM): 19.5%
- inhibition at 10 µM (UACC-257, Melanoma UACC-257, 10 μM): < 5%
- inhibition at 10 µM (UO-31, Renal cancer UO-31, 10 μM): 38.3%
